Laboratory results published in patent publication US4108726A, “Sarcoidosis test” (Research Corporation, priority 1976, dated 1978).
One block for each compound: values may come before it. Where a SMILES comes first, the peptide text is derived from it. The star is where a group is joined. Bz = O=C(c1ccccc1)*

Legend:
[1] = biological target: serum angiotensin-converting enzyme (Homo sapiens, UniProt P12821); assay: Spectrofluorimetric serum angiotensin converting enzyme assay with hippuryl-L-histidyl-L-leucine substrate; format: biochemical; settings: FIG. 2
Chain of serum angiotensin-converting enzyme (P12821 30-1232): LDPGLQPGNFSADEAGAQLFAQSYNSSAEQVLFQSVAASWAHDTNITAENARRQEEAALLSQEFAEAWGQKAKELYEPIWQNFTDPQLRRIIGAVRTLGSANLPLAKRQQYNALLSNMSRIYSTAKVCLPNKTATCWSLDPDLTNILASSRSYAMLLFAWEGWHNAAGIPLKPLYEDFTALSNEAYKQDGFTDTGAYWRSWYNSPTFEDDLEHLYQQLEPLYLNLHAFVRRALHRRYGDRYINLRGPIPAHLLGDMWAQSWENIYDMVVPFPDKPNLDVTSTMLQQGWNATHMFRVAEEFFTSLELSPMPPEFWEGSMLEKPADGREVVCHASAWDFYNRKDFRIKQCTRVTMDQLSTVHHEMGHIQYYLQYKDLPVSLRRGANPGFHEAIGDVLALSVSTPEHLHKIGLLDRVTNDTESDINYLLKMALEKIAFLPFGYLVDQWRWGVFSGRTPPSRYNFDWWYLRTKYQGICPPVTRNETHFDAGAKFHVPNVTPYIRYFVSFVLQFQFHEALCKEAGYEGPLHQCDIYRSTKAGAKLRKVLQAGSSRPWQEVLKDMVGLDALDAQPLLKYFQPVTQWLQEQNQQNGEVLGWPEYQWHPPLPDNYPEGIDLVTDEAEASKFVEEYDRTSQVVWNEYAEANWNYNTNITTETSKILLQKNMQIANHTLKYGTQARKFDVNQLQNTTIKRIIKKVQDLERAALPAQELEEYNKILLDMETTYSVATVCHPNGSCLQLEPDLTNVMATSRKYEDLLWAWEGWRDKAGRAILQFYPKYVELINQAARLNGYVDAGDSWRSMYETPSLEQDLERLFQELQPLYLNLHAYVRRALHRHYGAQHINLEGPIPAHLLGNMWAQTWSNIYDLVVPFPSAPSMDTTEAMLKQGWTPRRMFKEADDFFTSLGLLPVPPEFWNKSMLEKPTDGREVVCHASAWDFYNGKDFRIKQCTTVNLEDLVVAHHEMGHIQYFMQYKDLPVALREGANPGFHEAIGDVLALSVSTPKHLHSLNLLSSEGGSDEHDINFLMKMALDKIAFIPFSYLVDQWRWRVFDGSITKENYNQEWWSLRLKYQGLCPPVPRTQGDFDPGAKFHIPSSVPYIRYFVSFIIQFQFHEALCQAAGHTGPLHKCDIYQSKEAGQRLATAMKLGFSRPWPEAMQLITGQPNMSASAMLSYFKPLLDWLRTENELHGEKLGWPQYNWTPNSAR
Protocol: Substrate-buffer solution was prepared by mixing buffer, substrate and water at a ratio of 1:1:2.8 (final concentration in the assay mixture; 0.1M K phosphate, pH 8.3, 0.3M NaCl; 5mM hippuryl-L-histidyl-L-leucine).
Ten μl of serum was added to 240 μl of substrate-buffer solution at 37° C. in a 12 × 75 mm test tube tightly covered with Parafilm, mixed with a vortex mixer and incubated for 15 minutes at 37° C. Duplicate reaction mixtures were stopped by addition of 1.45 ml of 0.28 M NaOH and mixing with a vortex mixer. […] In order to keep the blank low, the development of fluorescence should be started as soon as possible after the addition of NaOH.
One hundred μl of o-phthaldialdehyde reagent was added to each tube which was mixed with a vortex mixer. […] The fluorescence was read in a 1 cm rectangular fluorescence cuvette in a Perkin-Elmer MPF-4 fluorimeter with 8 mm entrance and exit slits and a 7.5 V energy output between 30 and 90 minutes after addition of HCl, during which time it was stable. The excitation wavelength was 360 nm and the emission fluorescence wavelength was 500 nm.
Enzyme activity in nmoles L-histidyl-L-leucine/min/ml serum was calculated by two methods. The first is applicable for ratios of up to 2 of corrected assay/standard fluorescence. […]

[2] = Apparent hydrolysis of hippuryl-L-histidyl-L-leucine in NaOH; format: physicochemical; settings: 30 minutes between NaOH addition and fluorescence development
Protocol: Ten μl of serum was added to 240 μl of substrate-buffer solution at 37° C. in a 12 × 75 mm test tube tightly covered with Parafilm, mixed with a vortex mixer and incubated for 15 minutes at 37° C. Duplicate reaction mixtures were stopped by addition of 1.45 ml of 0.28 M NaOH and mixing with a vortex mixer. A substrate-buffer blank was similarly treated at the same time except that enzyme was added immediately after NaOH, and was an important control for the slow breakdown of hippuryl-L-histidine-L-leucine in NaOH. In order to keep the blank low, the development of fluorescence should be started as soon as possible after the addition of NaOH.
When large quantities of enzyme were used, this effect was small compared to the total fluorescence developed. However, the increase in fluorescence intensity of the blank in 30 minutes was equivalent to 1.3 nmol/min/ml and would result in a value 4% below the true one for an enzyme activity of 34 nmol/min/ml, which is in the normal range. To avoid spuriously high blanks due to base catalyzed hydrolysis, addition of NaOH to the blank, followed by enzyme, was made at the same time that NaOH was added to terminate the enzymatic reaction of the reacted samples.

[3] = test system: angiotensin converting enzyme of rabbit lung; settings: rabbit lung enzyme system; Cushman and Cheung 1971; cited from earlier work
[4] = test system: L-histidyl-L-leucine peptidase; assay: Hydrolysis of L-histidyl-L-leucine by human serum peptidase, fluorimetric; format: biochemical; settings: estimated from 1/v-1/S plots
Protocol: Hydrolysis of the product L-histidyl-L-leucine was determined fluorimetrically by adding L-histidyl-L-leucine to an assay mixture which contained buffer and serum and was handled as described for the enzyme assays, including a zero time control. Hydrolysis was accompanied by a decrease in fluorescence from that obtained with the initial concentration as determined in the zero time control. The quantity hydrolyzed was determined by multiplying the fraction hydrolyzed (decrease in FI/initial FI) by the initial concentration. No correction was made for the fluorescence of L-histidine since it was only about 8% of the fluorescence of L-histidyl-L-leucine.
The activity of the L-histidyl-L-leucine hydrolyzing activity was measured in several sera under the conditions of the orginal assay (50 μl sera in 125 μl 0.1 M K phosphate-0.3 M NaCl, pH 8.3) using as substrate 0.2 mM L-histidyl-L-leucine, a concentration typically formed in the angiotensin converting enzyme reaction mixture. […] The velocity of the L-histidyl-L-leucine peptidase reaction was determined at varying L-histidyl-L-leucine concentrations. The Km for L-histidyl-L-leucine of the peptidase was estimated from l/.nu.-l/S plots, see Lineweaver, H. and Burk, D. (1934). J. Amer. Chem. Soc. 56, 658, to be 0.16 mM. […]

[5] = test system: porcine lung L-histidyl-L-leucine peptidase; settings: Lee, Larue and Wilson 1971; cited from earlier work
[6] = test system: serum angiotensin converting enzyme; assay: Serum angiotensin converting enzyme assay with angiotensin I as substrate; format: biochemical, human
Protocol: Three mg of angiotensin I were dissolved in 10 ml buffer, 0.03125 M NaCl and 0.104 M potassium phosphate, pH 7.5. The optical density (O.D.) of the solution at 275 nM was measured against the buffer. The O.D. of the angiotensin I solution was adjusted to 0.272 by either adding more buffer or solid angiotensin I. Based on a mMolar extintion coefficient of 1.31 at 275 nM, the final concentration in the assay was 0.2 mM angiotensin I which is about 4-5 times the Km of this enzyme previously measured. Two hundred forty μl of the angiotensin I solution were added to each tube, then warmed to 37° C. […] of serum were added to each tube, sealed and incubated for 1 hour. […]
For fluorescence development, 100 μl of 2% o-phthaldialdehyde in methanol were added to each tube and mixed with a vortex mixer. […] The fluorescence was read in a 1 cm rectangular fluorescence cuvette in a Perkin-Elmer MPF-4 fluorimeter with a 4 mm entrance and 8 mm exit slit and a 7.5 V energy output between 30-90 minutes after the addition of HCl, during which time the fluorescence was stable. The excitation wavelength was […] and the emission fluorescence wavelength was […].
Calculation of enzymatic activity in nmoles L-histidyl-L-leucine released/min/ml of serum was calculated as follows: Angiotensin converting enzyme activity, nmole his-leu released/min/ml serum = [formula]

Substrate concentration at maximum activity [1]: 5 mM | Substrate concentration at which inhibition was noted [1]: 15 mM | Increase in fluorescence intensity of the blank, as equivalent enzyme activity (base-catalyzed hydrolysis) [2]: 1.3 nmol/min/mL
Compound: CC(C)C[C@H](NC(=O)[C@H](Cc1c[nH]cn1)NC(=O)CNC(=O)c1ccccc1)C(=O)O [hippuryl-L-histidyl-L-leucine, Hippuryl-L-histidyl-L-leucine] (Bz-Gly-His-Leu-OH)
Km [3]: 2600 µM | Substrate concentration above which inhibition was present [3]: above 10 mM

Km [4]: 160 µM
Compound: CC(C)C[C@H](NC(=O)[C@@H](N)Cc1c[nH]cn1)C(=O)O [L-histidyl-L-leucine] (H-His-Leu-OH)
Km [5]: 200 µM

Activity as substrate compared with hippuryl-L-histidyl-L-leucine [6]: considerably lower
Compound: angiotensin I (DRVYIHPFHL; Angiotensin-1; UniProt P01019 25-34, looked up) [decapeptide natural substrate of angiotensin converting enzyme]
